Test results reported in patent US20230029496A1, “AMINO ACID ALTERNATIVE CURING SYSTEM” (THE TEXAS A&M UNIVERSITY SYSTEM, priority 2019, published 2023).
Marks after values point to notes of the source that are not given here.

Experiment: pH after immersion, pre- and post-rigor pork semimembranosus muscle (Example 13)
Type: physicochemical

## N=C(N)NCCC[C@H](N)C(=O)O [L-arginine]
2 mM L-arginine, post rigor cooked
  pH after 2 hours of sample immersion: 5.77^a
2 mM L-arginine, post rigor raw
  pH after 2 hours of sample immersion: 5.52^a
2 mM L-arginine, pre-rigor cooked
  pH after 2 hours of sample immersion: 6.03^a
2 mM L-arginine, pre-rigor raw
  pH after 2 hours of sample immersion: 5.94^a
4 mM L-arginine, post rigor cooked
  pH after 2 hours of sample immersion: 5.75^a
4 mM L-arginine, post rigor raw
  pH after 2 hours of sample immersion: 5.52^a
4 mM L-arginine, pre-rigor cooked
  pH after 2 hours of sample immersion: 6.01^a
4 mM L-arginine, pre-rigor raw
  pH after 2 hours of sample immersion: 6.04^a
8 mM L-arginine, post rigor cooked
  pH after 2 hours of sample immersion: 5.66^a
8 mM L-arginine, post rigor raw
  pH after 2 hours of sample immersion: 5.53^a
8 mM L-arginine, pre-rigor cooked
  pH after 2 hours of sample immersion: 5.99^a
8 mM L-arginine, pre-rigor raw
  pH after 2 hours of sample immersion: 5.93^a
16 mM L-arginine, post rigor cooked
  pH after 2 hours of sample immersion: 5.75^a
16 mM L-arginine, post rigor raw
  pH after 2 hours of sample immersion: 5.53^a
16 mM L-arginine, pre-rigor cooked
  pH after 2 hours of sample immersion: 6.00^a
16 mM L-arginine, pre-rigor raw
  pH after 2 hours of sample immersion: 5.91^a
32 mM L-arginine, post rigor cooked
  pH after 2 hours of sample immersion: 5.76^a
32 mM L-arginine, post rigor raw
  pH after 2 hours of sample immersion: 5.56^a
32 mM L-arginine, pre-rigor cooked
  pH after 2 hours of sample immersion: 5.97^a
32 mM L-arginine, pre-rigor raw
  pH after 2 hours of sample immersion: 5.93^a
Range over pre- and post-rigor, raw and cooked, 0-32 mM
  sample pH after the immersion phase: 5.51-6.04
